Columns and labels:
[1] = system: chronic constriction nerve injury model rat; experiment: Chronic constriction nerve injury model rat, mechanical allodynia by von Frey test; type: in vivo; conditions: von Frey test, left hind paw
Protocol: This test was performed by referring to a method of Bennett et al. (Pain, 1988, vol. 33, pp. 87-107). Compound A was used as a test substance, and celecoxib, one of NSAIDs, was used as a reference substance. The compound A was administered at a dose of 30 mg/kg (Compound A group). The celecoxib was administered at a dose of 30 mg/kg (celecoxib group). To a control group, a 0.5% methyl cellulose aqueous solution used as a vehicle was administered. Under anesthetic with Somnopentyl (manufactured by Kyoritsu Seiyaku Corporation, about 52 mg/kg, intraperitoneal administration), nerve constriction operation was performed on the left sciatic nerves of Sprague-Dawley male rats (7 weeks old). Briefly, a left femoral region of each rat was dissected, the sciatic nerve was detached from tissues around, and the nerve was loosely constricted with a 4-0 silk suture (manufactured by Eticon Inc., surgical silk) for having narrow parts in four positions at intervals of about 1 mm. The muscular layer and the skin were respectively sutured, and the operation region was disinfected. The vehicle, the test substance or the reference substance was orally administered once a day continuously for 14 days from the 16th day after the operation. From the start of the administration, pain sense (mechanical allodynia) of the footpad of left hind paw was evaluated by von Frey test. […] The evaluation of the pain sense was expressed as an average of pain threshold values.

[2] = target: T1, MIF (Homo sapiens, UniProt P14174); experiment: Inhibition of MIF tautomerase activity (L-dopachrome methyl ester, absorbance at 475 nm); type: biochemical; conditions: 30 μmol/L test substance, 10 to 50 nmol/L MIF, pH 6.2, control = 100%; read-out: Inhibition Rate of Tautomerase Reaction
T1 construct: (catalogue number not given); host or cells: E. coli BL21 Star (DE3)
T1 sequence (P14174 2-115 limits assumed): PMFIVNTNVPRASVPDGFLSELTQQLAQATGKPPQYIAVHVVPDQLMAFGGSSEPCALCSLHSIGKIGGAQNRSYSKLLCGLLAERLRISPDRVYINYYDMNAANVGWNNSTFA
Protocol: The inhibitory effect of test substances against tautomerase activity of MIF was evaluated by referring to a method of Healy et al. (Cancer Epidemiology Biomarkers and Prevention, 2011, vol. 20, pp. 1516-1523).
In this method, tautomeric reaction from L-3,4-dihydroxyphenylalanine methyl ester (L-dopachrome methyl ester, colored) to 5,6-hydroxyindole-2-carboxylic acid methyl ester (no color) is measured as a change in absorbance at 475 nm.
As an enzyme source, recombinant MIF manufactured by Abcam Plc. or MIF produced and purified by referring to a method of Lubetsky et al. (The Journal of Biological Chemistry, 2002, vol. 277, pp. 24976-24982) was used. A purification method for MIF is described below.
The pET15b vector (Merck) into which the full length gene sequence of MIF had been inserted was transfected E. coli BL21 Star (DE3) strain (Life Technologies Corporation). […] The E. coli were resuspended in buffer (pH 7.5) containing 20 mmol/L Tris (Wako Pure Chemical Industries, Ltd.), 20 mmol/L sodium chloride (Wako Pure Chemical Industries, Ltd.) and 1 mmol/L dithiothreitol (Wako Pure Chemical Industries, Ltd.), and the resultant was subjected to ultrasonic lysis and centrifugation at 15000 rpm for 10 minutes. The thus obtained supernatant was filtered using a 0.20 μm filter, and was allowed to pass through HiTrap Q HP and HiTrap SP HP columns (GE Healthcare Japan Corporation), so as to separate flow-through fractions each of 5 mL. Each of 10 μL of the separated fractions was subjected to the electrophoresis using 5 to 20% polyacrylamide gel (Wako Pure Chemical Industries, Ltd.), and all proteins were stained with Coomassie brilliant blue reagent (Bio-Rad Laboratories, Inc.). On the basis of results thus obtained, a fraction containing a large amount of MIF and containing least amount of other proteins was selected as purified MIF. The concentration of MIF protein was measured by using BCA protein assay reagent (Thermo Fisher Scientific K. K.).
Inhibitory effect of each test substance against MIF tautomerase activity was measured as follows.
A final concentration of 10 to 50 nmol/L of MIF and a final concentration of 30 μmol/L of each test substance or 0.5% dimethyl sulfoxide (Wako Pure Chemical Industries, Ltd.) as a control were added to buffer (pH 6.2) containing 50 mmol/L Bis-Tris (Dojindo Laboratories) and 1 mmol/L EDTA (Dojindo Laboratories), and reaction was performed at room temperature for 15 minutes to give a reaction solution 1.
On the other hand, 1/20 volume of 12 mmol/L L-3,4-dihydroxyphenylalanine methyl ester (Sigma Aldrich) and 1/20 volume of 24 mmol/L sodium periodate (Wako Pure Chemical Industries, Ltd.) were added to buffer having the same composition as that used for obtaining the reaction solution 1, to give a reaction solution 2.
Next, the reaction solution 1 and the reaction solution 2 were mixed, and the temporal change of absorbance at 475 nm of the obtained mixture was immediately measured.
The difference of the absorbencies between the at about 1 minute after the measurement start and at about 5 minutes after was obtained. Assuming that the absorbance change of the control is 100%, an inhibiting rate of the tautomerase reaction in presence of=each test substance was calculated.

[3] = system: chronic relapsing EAE model of mouse; type: in vivo
Protocol: Compound A was selected as a test substance, and salazosulfapyridine (hereinafter referred to as SASP) was selected as a comparative control agent. Compound A was administered at a dose of 30 mg/kg (Compound A group). SASP was administered at a dose of 300 mg/kg (SASP group). In control group and normal group (no induction treatment group), 0.5% methyl cellulose aqueous solution used as vehicle of the administration liquid was administered.
The chronic relapsing EAE was induced in SJL/J female mice by immunization with partial PLP peptide. Briefly, an emulsion was prepared by mixing equivalent volumes of phosphate buffer saline containing 1 mg/mL of the peptide corresponding to residues 139-151 of the PLP and Freund's […] adjuvant containing 4 mg/mL of killed M. Tuberculosis H37Ra. The emulsion was intradermically injected (50 μg of PLP per mouse) into four positions on the back for immunization, and additionally, on the day of the immunization and two days after, pertussis toxin was intraperitoneally injected in each amount of 150 ng per mouse, twice in total. The vehicle, the test substance or the reference article was orally administered continuously for 44 days once daily from the day of the immunization.
In the present experiment, paralysis was developed to reach a peak on the 14th to 16th day after the immunization, and the symptom remitted once, but relapsed to reach a peak on the 38th day.
The symptom was evaluated in accordance with a report of Weaver et al. (FASEB Journal, 2005, vol. 19, p. 1668). Briefly, paralysis of all of the four limbs and the tail was evaluated by scoring in 4 ranks of scores of 0 to 3 and in 3 ranks of scores of 0 to 2, respectively, and the sum of the scores was determined as EAE score (the maximum score 14).
Incidence rates (the number of mice having developed the disease/the number of used mice) and the average of EAE score of each group were measured at the period of initial onset (on the 15th day after the immunization) and at the period of relapse (on the 38th day after the immunization).

Cc1ccc(-c2cc(C(F)(F)F)nn2-c2ccc(S(N)(=O)=O)cc2)cc1 [Celecoxib, celecoxib, reference compound]
Average of pain thresholds, 30th day after operation ([1]; 30 mg/kg orally once a day for 14 days from the 16th day after operation): 3.1 g
Average of pain thresholds, 15th day after operation ([1]; day before start of administration, 30 mg/kg groups): 2.5 g

CS(=O)(=O)Nc1cc2occ(N)c(=O)c2cc1Oc1ccccc1 [Compound B, N-(3-amino-4-oxo-6-phenoxy-4H-1-benzopyran-7-yl)methanesulfonamide]
inhibition at 30 µM [2]: 50 to 75%

CC(=O)Nc1coc2cc(NS(C)(=O)=O)c(Oc3ccccc3)cc2c1=O [Compound C, N-[7-[(methylsulfonyl)amino]-4-oxo-6-phenoxy-4H-1-benzopyran-3-yl]acetamide]
inhibition at 30 µM [2]: 50 to 75%

CS(=O)(=O)Nc1cc2occc(=O)c2cc1Oc1ccccc1 [Compound D, N-(4-oxo-6-phenoxy-4H-1-benzopyran-7-yl)methanesulfonamide]
inhibition at 30 µM [2]: 50 to 75%

CS(=O)(=O)Nc1cc2oc(C(N)=O)cc(=O)c2cc1Oc1ccccc1 [Compound E, 7-[(methylsulfonyl)amino]-4-oxo-6-phenoxy-4H-1-benzopyran-2-carboxamide]
inhibition at 30 µM [2]: ≥ 75%

CC(=O)Nc1cc(=O)c2cc(Oc3ccccc3)c(NS(C)(=O)=O)cc2o1 [Compound F, N-[7-[(methylsulfonyl)amino]-4-oxo-6-phenoxy-4H-1-benzopyran-2-yl]acetamide]
inhibition at 30 µM [2]: ≥ 75%

CS(=O)(=O)Nc1cc2occ(C(N)=O)c(=O)c2cc1Oc1ccccc1 [Compound G, 7-[(methylsulfonyl)amino]-4-oxo-6-phenoxy-4H-1-benzopyran-3-carboxamide]
inhibition at 30 µM [2]: 50 to 75%

CCS(=O)(=O)Nc1cc2occ(NC=O)c(=O)c2cc1Oc1ccccc1 [Compound H, N-[7-[(ethylsulfonyl)amino]-4-oxo-6-phenoxy-4H-1-benzopyran-3-yl]formamide]
inhibition at 30 µM [2]: ≥ 75%

CS(=O)(=O)Nc1cc2oc(-c3ccccc3)cc(=O)c2cc1Oc1ccccc1 [Compound I, N-(4-oxo-6-phenoxy-2-phenyl-4H-1-benzopyran-7-yl)methanesulfonamide]
inhibition at 30 µM [2]: ≥ 75%

O=C(O)c1cc(/N=N/c2ccc(S(=O)(=O)Nc3ccccn3)cc2)ccc1O [SASP, salazosulfapyridine]
Animals died, by period of initial onset ([3]; 15th day after immunization, 8 animals, 300 mg/kg orally once daily): (1 animal
EAE score, period of initial onset ([3]; 15th day after immunization, average, maximum score 14, oral once daily (Compound A 30 mg/kg, SASP 300 mg/kg)): 5.5
Incidence rate, period of initial onset ([3]; 15th day after immunization, mice having developed the disease/mice used, oral once daily from immunization (Compound A 30 mg/kg, SASP 300 mg/kg)): 7/7
Animals died, by period of relapse ([3]; 38th day after immunization, 8 animals, 300 mg/kg orally once daily): (2 animals
EAE score, period of relapse ([3]; 38th day after immunization, average, maximum score 14, oral once daily (Compound A 30 mg/kg, SASP 300 mg/kg)): 2.0
Incidence rate, period of relapse ([3]; 38th day after immunization, mice having developed the disease/mice used, oral once daily (Compound A 30 mg/kg, SASP 300 mg/kg)): 6/6
Effect on incidence rate / EAE score, paralysis of chronic relapsing EAE ([3]; oral once daily for 44 days from immunization (Compound A 30 mg/kg, SASP 300 mg/kg)): neither the incidence rate nor the EAE score was lowered
